Patent US11185532B2, “Methods of treating pruritus” (Clexio Biosciences Ltd., priority 2019, dated 2021)
Read-outs that look alike come from different tables or passages of the source.

Key:
Adrenergic α2A = Adrenergic α2A (Homo sapiens, UniProt P08913); assay: biochemical
SST4 [1] = biological target: T1, SST4 (Homo sapiens, UniProt P31391); assay: biochemical
Adrenergic α2C = Adrenergic α2C (Homo sapiens, UniProt P18825); assay: biochemical
[2] = tested on: PNT-induced neuropathic pain in pigs; assay: Peripheral neuritis trauma (PNT)-induced neuropathic pain in pigs; type: in vivo; conditions: topical twice daily 0.1%, 0.33%, 1%
Description: 30 pigs were anaesthetized and an incision of 8-10 cm made through the skin and fascia on the left side of their lower backs, approximately 1 cm lateral and parallel to the spine line. The muscles were retracted and the sciatic nerve exposed. Following exposure, PNT was induced by loosely tying (1-2 mm apart) around the lateral half of the sciatic nerve bundle, three 3-0 silk threads, each previously immersed in complete Freund's adjuvant. 14 days after surgery and once chronic neuropathic pain had been established, treatment was initiated according to the protocol shown in Table 5. [table] At time points over the following 14 days, the animals were assessed for a variety of pain and motor parameters.

HRH4 = biological target: T2, HRH4 (Homo sapiens, UniProt Q9H3N8); assay: β-arrestin GPCR internalization assay; type: cell-based; conditions: for EC50: read-out: RC50 (EC50)
T2 construct: Eurofins Discover X, USA

SST4 [3] = biological target: T1, SST4; assay: In vitro functional assay, SST4; type: cell-based; conditions: agonist; highest concentration tested 10 μm

T1 sequence (P31391 whole entry): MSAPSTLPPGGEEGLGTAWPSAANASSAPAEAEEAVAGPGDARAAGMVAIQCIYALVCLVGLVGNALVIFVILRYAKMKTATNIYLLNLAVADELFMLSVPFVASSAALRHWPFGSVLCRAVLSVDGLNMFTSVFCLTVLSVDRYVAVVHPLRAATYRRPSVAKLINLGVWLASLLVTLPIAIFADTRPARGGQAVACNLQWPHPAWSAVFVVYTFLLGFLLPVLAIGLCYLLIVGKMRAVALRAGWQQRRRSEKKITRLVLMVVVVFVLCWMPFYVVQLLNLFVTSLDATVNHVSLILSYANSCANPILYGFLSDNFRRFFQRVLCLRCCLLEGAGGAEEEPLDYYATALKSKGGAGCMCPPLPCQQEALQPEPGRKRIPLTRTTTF
Sequence of Adrenergic α2A (P08913 whole entry): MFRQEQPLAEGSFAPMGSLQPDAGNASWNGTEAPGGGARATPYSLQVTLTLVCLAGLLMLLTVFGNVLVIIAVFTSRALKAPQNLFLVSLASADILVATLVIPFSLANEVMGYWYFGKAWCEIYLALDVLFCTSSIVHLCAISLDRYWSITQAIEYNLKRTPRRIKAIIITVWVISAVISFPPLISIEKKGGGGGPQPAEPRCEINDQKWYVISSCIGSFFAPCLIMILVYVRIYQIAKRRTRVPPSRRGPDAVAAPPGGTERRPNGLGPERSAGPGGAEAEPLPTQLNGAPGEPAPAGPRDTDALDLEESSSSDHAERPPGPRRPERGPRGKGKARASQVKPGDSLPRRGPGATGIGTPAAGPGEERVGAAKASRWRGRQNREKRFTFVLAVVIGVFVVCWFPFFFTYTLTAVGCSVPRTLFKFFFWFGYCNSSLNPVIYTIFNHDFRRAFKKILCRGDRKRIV
Sequence of Adrenergic α2C (P18825 whole entry): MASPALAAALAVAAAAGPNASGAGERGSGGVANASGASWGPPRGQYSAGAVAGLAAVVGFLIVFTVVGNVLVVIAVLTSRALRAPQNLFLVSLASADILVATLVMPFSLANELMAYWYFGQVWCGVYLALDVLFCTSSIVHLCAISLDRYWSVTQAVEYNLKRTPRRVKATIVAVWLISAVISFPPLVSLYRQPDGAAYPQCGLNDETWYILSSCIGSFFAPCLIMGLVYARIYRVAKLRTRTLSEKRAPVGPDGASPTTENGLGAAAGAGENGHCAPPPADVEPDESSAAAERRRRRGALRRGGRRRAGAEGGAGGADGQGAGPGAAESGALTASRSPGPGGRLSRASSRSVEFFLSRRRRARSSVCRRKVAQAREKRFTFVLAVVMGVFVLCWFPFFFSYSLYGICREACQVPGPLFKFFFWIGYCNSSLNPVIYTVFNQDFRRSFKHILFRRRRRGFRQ

Row | EC50 (HRH4; assay format: Agonist) | IC50 (HRH4; assay format: Antagonist, read-out: RC50 (IC50)) | EC50 (HRH4; assay format: Inverse agonist) | EC50 (SST4 [3]) | Compound | inhibition at 10 µM (Adrenergic α2A) | inhibition at 10 µM (SST4 [1]) | inhibition at 10 µM (Adrenergic α2C) | Stimulus-evoked pain, Von Frey (VF) withdrawal threshold ([2]; 14 days, versus placebo, from Day 0) | Tactile allodynia, feather stimulation ([2]; 12-13 cm pigeon feather, as soon as Day 0) | Spontaneous pain behavior, General Behavioral Score (GBS) ([2]; 3 h and 6 h post-dose, from Day 0) | Open field motor test, locomotor activity / sedation ([2]; throughout the study)
1 |  |  |  |  | Clc1cccc(Cl)c1N=C1NCCN1 [clonidine] | 94% | 13% | 97% |  |  |  | 
2 | 9.6 µM | > 100 µM | > 100 µM | 7.3 µM | Cc1cccc(Cc2c[nH]cn2)c1C [detomidine] |  | 35% |  | dose-dependent analgesic effect | dose-dependent decreased tactile allodynia | dose-dependent reduction in GBS scores | did not affect locomotor activity at any dose level
